Reference: patent US20230088704A1, “A PHARMACEUTICAL COMBINATION FOR THE TREATMENT OF A CANCER” (ABILITY PHARMACEUTICALS S.L., priority 2020, published 2023)
Like-named read-outs stand apart in the source and are kept apart here.

Tests used:
JJN-3 cells = assay: Cell viability (MTT) and combination index, ABTL0812 with bortezomib; assay type: cell-based; settings: ABTL0812 5 μM, Bortezomib 0.5 nM, alone or combined; 48h
Procedure: (§1) Methods: JJN-3 and OPM2 cells were seeded in 24-well plates and treated with ABTL0812 (5 μM), bortezomib (0.5 and 1 nM respectively) or a combination of both drugs and left in the incubator for 48h (0.5% FBS). Cell viability was studied by the MTT assay and combination index was determined to evaluate a possible synergism.
(§2) Cell viability was evaluated in all cases by MTT assay and the Combination Index (CI), to evaluate synergism, was calculated according to the method of Chou and Talalay (Chou 2006; Chou 2010), as follows: CI=(D)1/(Dx)1+(D)2/(Dx)2, where CI<1, =1, and >1 indicate synergism, additive effect, and antagonism, respectively. In the denominator, (Dx)1 is for D1 “alone” that inhibits a system x %, and (Dx)2 is for D2 “alone” that inhibits a system x %.

OPM2 cells = assay: as above; assay type: cell-based; settings: ABTL0812 5 μM, Bortezomib 1 nM, alone or combined; 48h
Procedure: as §1, §2

Ishikawa cells [1] = assay type: in vivo; settings: ABTL0812 oral 120 mg/kg/day; Doxorubicin 5 mg/kg i.p. once a week
Procedure: Methods: Mice were injected with 4×10^6 Ishikawa cells in one flank to induce tumor formation. […] ABTL0812 was administered by the oral route at 120 mg/kg/day. Doxorubicin 5 mg/kg was administered intra-peritoneally once a week. Tumor volume and body weight were monitored 3 times a week.

Ishikawa cells [2] = assay: Human endometrial cancer xenograft, ABTL0812 with olaparib; assay type: in vivo; settings: ABTL0812 oral 120 mg/kg/day; Olaparib oral 50 mg/kg/day
Procedure: Methods: Mice were injected with 4×10^6 Ishikawa cells in one flank to induce tumor formation. […] Olaparib was administered by the oral route 50 mg/kg/day. Tumor volume and body weight were monitored 3 times a week.

PDL1 = PDL1 expression in cancer cells by flow cytometry (Example 6.2); assay type: cell-based, human; settings: Panc-1 cells; ABTL0812 50 μM, IFNγ 2.5 ng/ml or both
Procedure: Methods: Human cancer cell lines were incubated with 100 μM of ABTL0812 during 48 hours and collected for staining with anti-PDL1 antibody labeled with a fluorophore. After staining of cells with anti-PDL1 antibody, cells were run on Flow Cytometry (Facs Canto) to analyzed PDL1 levels in cancer cells. Additionally, we incubated Panc-1 cells with ABTL0812 (50 μM), IFNγ (2.5 ng/ml), a master regulator of PDL1 expression or a combination with both. Then, cells were collected, stained with anti-PDL1 antibody and analyzed by Flow Cytometry for the expression of PDL1.

Ishikawa cells [3] = assay: Human endometrial cancer xenograft, ABTL0812 with bevacizumab; assay type: in vivo; settings: ABTL0812 oral 120 mg/kg/day; Bevacizumab ip 100 μg/dose every four days
Procedure: Methods: Mice were injected with 4×10^6 Ishikawa cells in one flank to induce tumor formation. […] Bevacizumab was administered ip at 100 μg/dose, every four days up to four administration. Tumor volume and body weight were monitored 3 times a week.

With `CC(C)C[C@H](NC(=O)[C@H](Cc1ccccc1)NC(=O)c1cnccn1)B(O)O` [Bortezomib, reference compound] the cell death (JJN-3 cells) was roughly 15% and the cell death (OPM2 cells) was “around 10%”.
For `COc1cccc2c1C(=O)c1c(O)c3c(c(O)c1C2=O)C[C@@](O)(C(=O)CO)C[C@@H]3O[C@H]1C[C@H](N)[C@H](O)[C@H](C)O1` [doxorubicin, reference compound], the tumor volume (Ishikawa cells [1]) was “significantly reduced tumor volume”.
`O=C(c1cc(Cc2n[nH]c(=O)c3ccccc23)ccc1F)N1CCN(C(=O)C2CC2)CC1` [olaparib, reference compound] was tested, and the tumor volume (Ishikawa cells [2]) was “significantly reduced tumor volume”.
In the case of “IFNγ: well described master regulator of PDL1 expression [reference compound]”, the PDL1 levels (PDL1) is reported as “significantly higher levels of PDL1 compared with ABTL0812”.
With bevacizumab [reference compound] the tumor volume (Ishikawa cells [3]) was “significantly reduced tumor volume”.
